Laboratory results taken from ChEMBL document CHEMBL1125506, “Fluoronaphthyridines as antibacterial agents. 6. Synthesis and structure-activity relationships of new chiral 7-(1-, 3-, 4-, and 6-methyl-2,5-diazabicyclo[2.2.1]heptan-2-yl)naphthyridine analogues of 7-[(1R,4R)-2,5- diazabicyclo[2.2.1]heptan-2-yl]-1-(1,1-dimethylethyl)-6-fluoro-1,4-dihy …” (J Med Chem, 1992).
≈ marks a conversion by molar mass, not a printed value.

How the values were obtained:
[1] = system: Escherichia coli; experiment: In vitro antibacterial activity against Escherichia coli A15119; format: functional
[2] = system: Serratia marcescens; experiment: In vitro antibacterial activity against Serratia marcescens A20019; format: functional
[3] = system: Pseudomonas aeruginosa; experiment: In vitro antibacterial activity against Pseudomonas aeruginosa A9843; format: functional
[4] = Solubility (water, 22C, pH 7.2); format: physicochemical; conditions: read-out: S
[5] = system: Klebsiella pneumoniae; experiment: In vitro antibacterial activity against Klebsiella pneumoniae A9664; format: functional
[6] = system: Enterobacter cloacae; experiment: In vitro antibacterial activity against Enterobacter cloacae A9656; format: functional
[7] = system: Enterococcus faecalis; experiment: In vitro antibacterial activity against Enterococcus faecalis A9809; format: functional
[8] = system: Morganella morganii; experiment: In vitro antibacterial activity against Morganella morganii A15153; format: functional
[9] = system: Streptococcus pneumoniae; experiment: In vitro antibacterial activity against Streptococcus pneumoniae A9585.; format: functional
[10] = Partition coefficient (logD); format: physicochemical; conditions: octanol/water
[11] = system: Staphylococcus aureus; experiment: In vitro antibacterial activity against Staphylococcus aureus A9537; format: functional
[12] = system: Proteus mirabilis; experiment: In vitro antibacterial activity against Proteus mirabilis A9900; format: functional
[13] = system: Bacteroides fragilis; experiment: In vitro antibacterial activity against Bacteroides fragilis A-22,862; format: functional
[14] = system: Mus musculus; experiment: In vivo efficacy on systemic infections caused by Escherichia coli A15119 in mice after intramuscular administration; format: functional; conditions: im, read-out: PD50
[15] = system: Mus musculus; experiment: Area under curve measured as conc vs time after intravenous administration to mice.; format: ADME, organism-based; set-up: unit not given here; conditions: in vivo
[16] = system: Mus musculus; experiment: In vivo efficacy on systemic infections caused by Escherichia coli A15119 in mice after peroral administration; format: functional; conditions: po, read-out: PD50
[17] = Peak concentration in blood after peroral administration to mice; format: ADME, organism-based; set-up: route oral; conditions: mouse, po
[18] = Acute toxicity after intravenous administration to mice; format: organism-based; conditions: mouse, in vivo
[19] = Plasma half-life after intravenous administration to mice; format: ADME, organism-based; conditions: mouse
[20] = system: Mus musculus; experiment: In vivo efficacy on systemic infections caused by Pseudomonas aeruginosa A9843 in mice after intramuscular administration; format: functional; conditions: im, read-out: PD50
[21] = Acute toxicity after peroral administration to mice; format: organism-based; conditions: mouse, in vivo, po
[22] = Percent urinary recovery in 24 hr after peroral administration to mice; format: ADME, organism-based; conditions: mouse, urine, po; read-out: UR
[23] = Plasma half-life after peroral administration to mice; format: ADME, organism-based; conditions: mouse, po
[24] = percent urinary recovery in 24 hr after intravenous administration to mice; format: ADME, organism-based; conditions: mouse, urine, read-out: UR
[25] = system: Mus musculus; experiment: Area under curve measured as conc vs time after peroral administration to mice.; format: ADME, organism-based; set-up: unit not given here; conditions: in vivo, po
[26] = system: Mus musculus; experiment: In vivo efficacy on systemic infections caused by Pseudomonas aeruginosa A9843 in mice after peroral administration; format: functional; conditions: po, read-out: PD50
[27] = Peak concentration in blood after intravenous administration to mice; format: ADME, organism-based; set-up: route intravenous; conditions: mouse
[28] = system: Mus musculus; experiment: In vivo efficacy on systemic infections caused by Staphylococcus aureus A15090 in mice after intramuscular administration; format: functional; conditions: im, read-out: PD50
[29] = system: Mus musculus; experiment: In vivo efficacy on systemic infections caused by Staphylococcus aureus A15090 in mice after peroral administration; format: functional; conditions: po, read-out: PD50
[30] = system: Mus musculus; experiment: In vivo efficacy on systemic infections caused by Streptococcus pneumoniae A9585 in mice after intramuscular administration; format: functional; conditions: im, read-out: PD50
[31] = system: Mus musculus; experiment: In vivo efficacy on systemic infections caused by Streptococcus pneumoniae A9585 in mice after peroral administration; format: functional; conditions: po, read-out: PD50

SMILES | MIC [1] [µg/mL] | MIC [2] [µg/mL] | MIC [3] [µg/mL] | solubility [4] [µg/mL] | MIC [5] [µg/mL] | MIC [6] [µg/mL] | MIC [7] [µg/mL] | MIC [8] [µg/mL] | MIC [9] [µg/mL] | logD [10] | MIC [11] [µg/mL] | MIC [12] [µg/mL] | MIC [13] [µg/mL] | Cmax [17] [ng/mL] | half-life [19] [h] | dose excreted at 24 h [22] [%] | half-life [23] [h] | dose excreted at 24 h [24] [%] | ED50 [26] [mg/kg] | Cmax [27] [ng/mL] | also measured
Cc1c(F)c(N2C[C@H]3C[C@@H]2[C@@H](C)N3)nc2c1c(=O)c(C(=O)O)cn2C1CC1.Cl | 0.016 | 0.5 | 1 | 150 | 0.06 | 0.06 | 0.25 | 0.25 | 0.13 | 0.71 | 0.016 | 0.25 | 8 |  |  |  |  |  |  |  | 
CN1C[C@H]2C[C@@H]1CN2c1nc2c(cc1F)c(=O)c(C(=O)O)cn2C(C)(C)C | 0.25 (≈ 0.668 µM) | 0.25 (≈ 0.668 µM) | 2 (≈ 5.34 µM) | 310 (≈ 828 µM) | 0.13 (≈ 0.347 µM) | 0.13 (≈ 0.347 µM) |  | 0.5 (≈ 1.34 µM) |  | 0.21 | 0.13 (≈ 0.347 µM) | 1 (≈ 2.67 µM) |  | 13000 | 1.6 | 3 | 1.33 | 15 | 10.2 | 14000 | ED50 [14]: 1 mg/kg; AUC [15]: 14; ED50 [16]: 2.4 mg/kg; LD50 [18]: 188 mg/kg; ED50 [20]: 4.7 mg/kg; LD50 [21]: 1000 mg/kg; AUC [25]: 18
C[C@@H]1[C@H]2C[C@H](CN2)N1c1nc2c(cc1F)c(=O)c(C(=O)O)cn2C(C)(C)C.Cl | 0.016 | 0.25 | 1 | 11800 | 0.25 | 0.06 | 0.5 | 0.5 | 0.13 | 0.17 | 0.03 | 0.5 | 1 | 5000 | 0.733 | 1 | 0.8 | 2 | 22 | 13000 | ED50 [14]: 2.4 mg/kg; AUC [15]: 10; ED50 [16]: 12.5 mg/kg; ED50 [20]: 12.5 mg/kg; ED50 [28]: 7.5 mg/kg; AUC [25]: 5; ED50 [29]: 13.1 mg/kg
CC(C)(C)n1cc(C(=O)O)c(=O)c2cc(F)c(N3C[C@H]4C[C@]3(C)CN4)nc21.Cl | 0.25 | 1 | 4 | 6 | 0.5 | 0.25 | 16 | 2 | 2 | -0.37 | 1 | 2 | 64 |  |  |  |  |  |  |  | 
C[C@@H]1N[C@@H]2C[C@H]1N(c1nc3c(cc1F)c(=O)c(C(=O)O)cn3C(C)(C)C)C2.Cl | 0.008 | 0.13 | 0.5 | 25 | 0.03 | 0.03 | 0.25 | 0.13 | 0.25 | 0.1 | 0.03 | 0.13 | 2 | 9000 | 1.22 | 18 | 2.63 | 16 | 2.7 | 22000 | AUC [15]: 22; LD50 [18]: 263 mg/kg; ED50 [20]: 1.6 mg/kg; LD50 [21]: > 2500 mg/kg; ED50 [28]: 0.9 mg/kg; ED50 [30]: 14.4 mg/kg; AUC [25]: 41; ED50 [31]: 25 mg/kg; ED50 [29]: 1.6 mg/kg
C[C@H]1[C@H]2C[C@H](CN2)N1c1nc2c(cc1F)c(=O)c(C(=O)O)cn2C(C)(C)C.Cl | 0.03 | 0.25 | 2 | 1330 | 0.5 | 0.13 | 1 | 1 | 1 | -0.22 | 0.06 | 1 | 8 | 9000 | 1.22 | 16 | 1.08 | 16 | 22 | 22000 | AUC [15]: 22; ED50 [20]: 12.5 mg/kg; AUC [25]: 17; ED50 [29]: 5.4 mg/kg
CC(C)(C)n1cc(C(=O)O)c(=O)c2cc(F)c(N3C[C@H]4C[C@@H]3CN4)nc21 | 0.008 (≈ 0.0222 µM) | 0.06 (≈ 0.166 µM) | 0.25 (≈ 0.694 µM) | 80 (≈ 222 µM) | 0.016 (≈ 0.0444 µM) | 0.016 (≈ 0.0444 µM) | 0.13 (≈ 0.361 µM) | 0.03 (≈ 0.0832 µM) | 0.13 (≈ 0.361 µM) | -0.41 | 0.03 (≈ 0.0832 µM) | 0.06 (≈ 0.166 µM) | 0.5 (≈ 1.39 µM) | 10000 | 1.22 | 34 | 1.6 | 30 | 4.7 | 20000 | ED50 [14]: 0.5 mg/kg; LD50 [18]: 303 mg/kg; ED50 [20]: 1.4 mg/kg; LD50 [21]: 5000 mg/kg; ED50 [28]: 0.9 mg/kg; ED50 [30]: 18.9 mg/kg; ED50 [31]: 28 mg/kg; ED50 [29]: 1.6 mg/kg
Cc1c(F)c(N2[C@H]3CN[C@H](C3)[C@H]2C)nc2c1c(=O)c(C(=O)O)cn2C1CC1.Cl | 0.016 | 0.5 | 2 | 220 | 0.06 | 0.06 | 0.025 | 0.25 | 0.25 | 1 | 0.03 | 0.5 | 8 |  |  |  |  |  |  |  | 
Cc1c(F)c(N2C[C@H]3C[C@@H]2[C@H](C)N3)nc2c1c(=O)c(C(=O)O)cn2C1CC1.Cl | 0.004 | 0.13 | 0.13 | 6 | 0.016 | 0.016 | 0.13 | 0.06 | 0.06 | 0.71 | 0.016 | 0.06 | 2 | 6000 | 4.8 | 18 | 4.2 | 16 | 0.34 | 12000 | ED50 [14]: 0.1 mg/kg; AUC [15]: 59; ED50 [20]: 0.78 mg/kg; ED50 [28]: 0.34 mg/kg; ED50 [30]: 18.9 mg/kg; AUC [25]: 41; ED50 [31]: 18.9 mg/kg; ED50 [29]: 1.8 mg/kg
C[C@H]1N[C@@H]2C[C@H]1N(c1nc3c(cc1F)c(=O)c(C(=O)O)cn3C(C)(C)C)C2.Cl | 0.03 | 0.25 | 2 | 6340 | 0.5 | 0.06 | 1 | 1 | 0.5 | -0.12 | 0.06 | 0.5 | 4 | 11000 | 0.75 | 17 | 0.733 | 18 | 9.5 | 23000 | AUC [15]: 18; ED50 [20]: 12.5 mg/kg; AUC [25]: 8; ED50 [29]: 16.5 mg/kg
Cc1c(F)c(N2C[C@H]3C[C@@H]2[C@H](C)N3)nc2c1c(=O)c(C(=O)O)cn2C(C)(C)C.Cl | 0.03 | 0.5 | 2 | 250 | 0.13 | 0.03 | 0.5 | 0.5 | 0.5 | 1.3 | 0.016 | 0.5 | 16 |  |  |  |  |  |  |  | 
Cc1c(F)c(N2[C@H]3CN[C@H](C3)[C@@H]2C)nc2c1c(=O)c(C(=O)O)cn2C1CC1.Cl | 0.016 | 0.13 | 0.25 | 70 | 0.016 | 0.016 | 0.25 | 0.13 | 0.13 | 0.73 | 0.016 | 0.13 | 4 |  |  |  |  |  |  |  | 
CC(C)(C)n1cc(C(=O)O)c(=O)c2cc(F)c(N3C[C@@]4(C)C[C@@H]3CN4)nc21.Cl | 0.03 | 0.13 | 1 | 67 | 0.03 | 0.016 | 1 | 0.25 | 0.5 | 0.02 | 0.03 | 0.25 | 16 |  |  |  |  |  |  |  | 
Cc1c(F)c(N2C[C@H]3C[C@@H]2CN3)nc2c1c(=O)c(C(=O)O)cn2C1CC1 | 0.02 (≈ 0.0558 µM) | 0.006 (≈ 0.0167 µM) | 0.006 (≈ 0.0167 µM) | 20 (≈ 55.8 µM) | 0.008 (≈ 0.0223 µM) | 0.002 (≈ 0.00558 µM) | 0.06 (≈ 0.167 µM) | 0.03 (≈ 0.0837 µM) | 0.06 (≈ 0.167 µM) | 0.48 | 0.016 (≈ 0.0446 µM) | 0.03 (≈ 0.0837 µM) | 1 (≈ 2.79 µM) | 9000 | 1.5 | 34 | 1.28 | 41 | 2.7 | 19000 | ED50 [14]: 0.2 mg/kg; AUC [15]: 40; ED50 [16]: 0.9 mg/kg; LD50 [18]: 125 mg/kg; LD50 [21]: 1750 mg/kg; ED50 [28]: 2.4 mg/kg; ED50 [30]: > 25 mg/kg; AUC [25]: 26; ED50 [31]: 43.5 mg/kg; ED50 [29]: 5.4 mg/kg
